Source: US20230058279A1, “HERBICIDE COMPOSITIONS WITH AUXIN HERBICIDE MONOETHANOLAMINE SALTS WITH IMPROVED PROPERTIES” (MONSANTO TECHNOLOGY LLC, priority 2020, published 2023)

Test: Partition coefficient of compound (A) in solvents
Format: physicochemical
Conditions: HPLC
Experimental: Experimental procedure for the respective solvent: (1) A solution of 10 g of compound (A) is prepared in 90 g of the respective solvent. (2) An aliquot of 10 g of the solution obtained in step (1) is added to 90 g of water in a glass bottle, which is shaken on a mechanical shaker for 4 hours at ambient temperature (approximately 25° C.). (3) The contents of the glass bottle are permitted to phase separate for 4 days at ambient temperature (approximately 25° C.). (4) Subsamples of the resulting oil and water phases are taken and analyzed by HPLC to determine the concentrations of compound (A) in oil (Co) and water phases (Cw) respectively. The subsamples are typically centrifuged before HPLC analysis to remove traces of organic solvent from the water phase.
A Partition Coefficient, analogous to the Octanol-Water Partition Coefficient, P, is calculated as Co/Cw. The Partition Coefficient is conveniently expressed as a logarithm […].
The ratio of determined concentrations of compound (A) in the solvent phase and the water phase typically is very large. […] In other cases, traces of the organic solvent are found in the water phase, even after centrifugation, so that the apparent concentration of oil-soluble herbicide observed in the water phase is misleadingly high. […]

CCOC(=O)COc1ncccc1Oc1cc(-n2c(=O)cc(C(F)(F)F)n(C)c2=O)c(F)cc1Cl [Cmp. A, ethyl [3-[2-chloro-4-fluoro-5-(1-methyl-6-trifluoromethyl-2,4-dioxo-1,2,3,4-tetrahydropyrimidin-3-yl)phenoxy]-2-pyridyloxy]acetate]
compound (A) in the water phase (acetophenone as organic solvent): undetectable | compound (A) in the water phase (aromatic 200ND as organic solvent): undetectable
